Experimental data as given in the supplement of paper PMC10307832.

Columns and labels:
Assay in all cases: relative viability (nuclei count vs DMSO), 5 days (fraction); higher = more cells survive
[1] = compound: O=C(O)c1ccc2c(c1)nc(Nc1cccc(Cl)c1)c1ccncc12 [Silmitasertib] + CC(=O)Nc1cccc(-n2c(=O)n(C3CC3)c(=O)c3c(Nc4ccc(I)cc4F)n(C)c(=O)c(C)c32)c1 [Trametinib] (partner 0.02 µM)
How it was run: (§1)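 The day after seeding in 1536-well plates, lung cancer cell lines were treated by pin tool with a single drug, or with a fixed anchor-drug dose together with five library-drug doses (not always all listed) in √10 steps. After 5 days, a combined fix-and-stain solution (final 0.05% Triton X-100, 1% formaldehyde, 1 ug/ml Hoechst) was added. Nuclei counted on 4× images gave relative viability as treated counts over vehicle counts, reported as the median of duplicate plates.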

[2] = compound: O=C(O)c1ccc2c(c1)nc(Nc1cccc(Cl)c1)c1ccncc12 [Silmitasertib] + CS(=O)(=O)N1CCN(Cc2cc3nc(-c4cccc5[nH]ncc45)nc(N4CCOCC4)c3s2)CC1 [Pictilisib] (partner 1 µM)
How it was run: as §1

[3] = compound: O=C(O)c1ccc2c(c1)nc(Nc1cccc(Cl)c1)c1ccncc12 [Silmitasertib] + C[C@@H](Oc1cc(-c2cnn(C3CCNCC3)c2)cnc1N)c1c(Cl)ccc(F)c1Cl [Crizotinib] (partner 1 µM)
How it was run: as §1

Silmitasertib + AZD7762 = compound: O=C(O)c1ccc2c(c1)nc(Nc1cccc(Cl)c1)c1ccncc12 [Silmitasertib] + NC(=O)Nc1cc(-c2cccc(F)c2)sc1C(=O)N[C@H]1CCCNC1 [AZD7762] (partner 0.2 µM)
How it was run: as §1

Silmitasertib + Olaparib = compound: O=C(O)c1ccc2c(c1)nc(Nc1cccc(Cl)c1)c1ccncc12 [Silmitasertib] + O=C(c1cc(Cc2n[nH]c(=O)c3ccccc23)ccc1F)N1CCN(C(=O)C2CC2)CC1 [Olaparib] (partner 8 µM)
How it was run: as §1

Row | Cell Line | relative viability ([1]; first compound 0.04 µM) | relative viability ([1]; first compound 0.4 µM) | relative viability ([1]; first compound 1.265 µM) | relative viability ([1]; first compound 4 µM) | relative viability ([2]; first compound 0.04 µM) | relative viability ([2]; first compound 0.4 µM) | relative viability ([2]; first compound 1.265 µM) | relative viability ([2]; first compound 4 µM) | relative viability ([3]; first compound 0.04 µM) | relative viability ([3]; first compound 0.4 µM) | relative viability ([3]; first compound 1.265 µM) | relative viability ([3]; first compound 4 µM) | relative viability (Silmitasertib + AZD7762; first compound 0.04 µM) | relative viability (Silmitasertib + AZD7762; first compound 0.4 µM) | relative viability (Silmitasertib + AZD7762; first compound 1.265 µM) | relative viability (Silmitasertib + AZD7762; first compound 4 µM) | relative viability (Silmitasertib + Olaparib; first compound 0.04 µM) | relative viability (Silmitasertib + Olaparib; first compound 0.4 µM) | relative viability (Silmitasertib + Olaparib; first compound 1.265 µM) | relative viability (Silmitasertib + Olaparib; first compound 4 µM)
1 | EMC-BAC-2 | 0.977 | 0.845 | 0.684 | 0.698 | 0.568 | 0.472 | 0.371 | 0.325 | 0.847 | 0.701 | 0.653 | 0.721 | 1.22 | 1.04 | 1.08 | 0.662 | 0.477 | 0.358 | 0.333 | 0.283
2 | NCI-H661 | 0.645 | 0.605 | 0.667 | 0.615 | 0.461 | 0.298 | 0.243 | 0.271 | 1.02 | 0.929 |  | 1.1 |  |  |  |  | 0.735 | 0.679 | 0.629 | 0.493
3 | LU99A | 0.5 | 0.549 | 0.38 | 0.461 | 0.325 | 0.331 | 0.297 | 0.291 | 0.583 | 0.725 | 0.558 | 0.591 | 0.339 | 0.382 | 0.276 | 0.283 | 0.277 | 0.287 | 0.216 | 0.204
4 | LK-2 | 0.674 |  | 0.678 | 0.702 | 0.618 | 0.52 | 0.514 | 0.499 | 0.198 | 0.333 | 0.245 | 0.187 | 0.344 |  | 0.362 | 0.219 | 0.798 | 0.283 | 0.663 | 0.346
5 | NCI-H3122 | 0.204 | 0.174 | 0.212 | 0.264 | 0.694 | 0.53 | 0.634 | 0.644 | 0.305 | 0.262 | 0.256 | 0.262 | 1.04 | 0.705 | 0.99 | 0.92 | 0.675 | 0.371 | 0.616 | 0.644
6 | NCI-H2347 | 0.264 | 0.263 | 0.277 | 0.266 | 0.739 | 0.829 | 0.665 | 0.82 | 0.792 | 0.683 | 0.725 | 0.567 | 0.656 | 0.663 | 0.531 | 0.633 | 0.602 | 0.52 | 0.56 | 0.507
7 | NCI-H1563 |  |  |  |  | 0.62 | 0.679 | 0.68 | 0.578 | 0.88 | 0.822 | 0.856 | 0.857 |  |  |  |  |  |  |  | 
8 | HCC-827 | 0.604 |  | 0.406 | 0.422 | 1.04 |  | 0.751 | 0.788 | 0.993 |  | 0.952 | 1.01 | 0.234 |  | 0.214 | 0.205 | 0.659 |  | 0.705 | 0.735
9 | NCI-H1666 | 0.915 | 0.728 | 0.876 | 0.752 | 0.465 | 0.499 | 0.321 | 0.307 | 0.918 | 0.787 | 0.691 | 0.508 | 0.915 | 0.857 | 0.763 | 0.627 | 0.713 | 0.577 | 0.566 | 0.61
10 | NCI-H358 | 0.163 | 0.127 | 0.145 | 0.143 | 0.375 | 0.324 | 0.322 | 0.288 | 0.616 | 0.47 | 0.493 | 0.407 | 0.633 | 0.574 | 0.595 | 0.567 | 0.696 | 0.396 | 0.483 | 0.36
11 | 201T | 0.738 | 0.709 | 0.804 | 0.893 | 0.739 | 0.665 | 0.68 | 0.694 | 0.999 | 0.991 | 1.07 | 1.18 | 0.636 | 0.372 | 0.754 | 0.682 | 0.82 | 0.756 | 0.945 | 0.953
12 | PC-3 [JPC-3] | 0.716 | 0.661 | 0.795 | 0.632 | 0.837 | 0.672 | 0.586 | 0.708 | 0.968 | 0.868 | 1.03 | 0.999 | 0.862 | 0.723 | 0.897 | 0.75 | 1.22 | 0.737 | 1.12 | 1.13
13 | NCI-H2405 | 0.681 | 0.605 | 0.619 | 0.775 | 0.586 | 0.388 | 0.379 | 0.28 | 0.822 | 0.692 | 0.745 | 0.803 | 0.803 | 0.754 | 0.617 | 0.634 | 0.896 | 0.717 | 0.851 | 0.756
14 | LXF-289 | 0.666 |  | 0.752 | 0.836 | 0.808 |  | 0.772 | 0.79 | 0.794 |  | 0.842 | 0.825 | 1.13 |  | 1.29 | 1.28 | 0.995 |  | 0.935 | 1.07
15 | EKVX | 0.385 |  | 0.269 | 0.47 | 0.491 | 0.356 | 0.373 | 0.383 | 1.15 | 0.819 | 0.653 | 0.895 | 0.834 |  | 0.682 | 0.642 | 0.889 |  | 0.7 | 0.784
16 | A-427 | 0.952 | 0.595 | 0.785 | 0.497 | 0.858 |  | 0.521 | 0.238 | 0.888 |  | 0.805 | 0.63 | 0.852 | 0.555 | 0.562 | 0.445 | 0.87 | 0.616 | 0.762 | 0.579
17 | IA-LM |  |  |  |  | 0.346 | 0.267 | 0.233 | 0.149 | 0.792 | 0.725 | 0.916 | 0.659 |  |  |  |  | 0.899 | 0.561 | 0.791 | 0.614
18 | ChaGo-K-1 | 0.938 | 0.704 | 0.821 | 0.907 | 1.26 | 0.59 | 0.607 | 0.486 | 1.35 | 1 | 1.07 | 0.931 | 0.905 | 0.618 | 0.85 | 0.913 | 0.421 | 0.288 | 0.376 | 0.399
